Test results as given in patent US20110015162A1, “15,16-Methylene-17-hydroxy-19-nor-21-carboxylic acid-steroid Y-lactone derivative, use thereof and medicinal products containing the derivative” (Bayer Schering Pharma Aktiengesellschaft, priority 2007, published 2011).
Where two headings read alike, the source gives them in different places.

Columns and labels:
[1] = molecular target: T1, mineralocorticoid receptor (Homo sapiens, UniProt P08235); assay: Mineralocorticoid receptor binding test; set-up: made in house; host or cells: Hi5 insect cells (cytosol); details: reference substance 3H-aldosterone, cytosol from MR-expressing insect cells (Hi5)
T1 sequence (P08235 1-984): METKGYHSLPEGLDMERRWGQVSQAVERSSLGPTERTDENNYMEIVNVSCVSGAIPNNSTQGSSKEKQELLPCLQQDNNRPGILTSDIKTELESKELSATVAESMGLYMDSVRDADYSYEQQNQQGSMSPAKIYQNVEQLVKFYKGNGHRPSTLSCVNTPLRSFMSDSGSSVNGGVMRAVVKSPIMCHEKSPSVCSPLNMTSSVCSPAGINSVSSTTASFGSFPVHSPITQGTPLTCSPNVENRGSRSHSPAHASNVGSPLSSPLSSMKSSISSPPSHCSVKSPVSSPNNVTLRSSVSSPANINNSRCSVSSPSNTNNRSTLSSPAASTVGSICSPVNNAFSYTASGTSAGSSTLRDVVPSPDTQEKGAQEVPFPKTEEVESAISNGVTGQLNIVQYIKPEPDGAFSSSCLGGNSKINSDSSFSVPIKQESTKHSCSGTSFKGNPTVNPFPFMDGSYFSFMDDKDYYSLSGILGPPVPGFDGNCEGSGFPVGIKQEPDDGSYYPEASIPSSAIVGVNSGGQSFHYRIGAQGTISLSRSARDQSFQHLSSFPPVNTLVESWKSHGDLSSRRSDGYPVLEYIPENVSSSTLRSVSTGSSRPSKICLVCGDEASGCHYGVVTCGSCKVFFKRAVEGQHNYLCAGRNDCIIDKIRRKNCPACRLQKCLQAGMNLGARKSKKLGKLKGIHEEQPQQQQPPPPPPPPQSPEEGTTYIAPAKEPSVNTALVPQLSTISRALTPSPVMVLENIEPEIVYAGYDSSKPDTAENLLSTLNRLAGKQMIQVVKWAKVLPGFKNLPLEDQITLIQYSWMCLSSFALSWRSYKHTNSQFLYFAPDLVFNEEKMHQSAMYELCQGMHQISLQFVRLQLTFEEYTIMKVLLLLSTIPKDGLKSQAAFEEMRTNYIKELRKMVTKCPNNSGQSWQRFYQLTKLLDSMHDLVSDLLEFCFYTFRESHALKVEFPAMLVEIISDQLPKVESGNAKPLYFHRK
Description: (§1) Using cytosol from progesterone receptor-expressing insect cells (Hi5), competitive binding to the progesterone receptor was determined from the ability to displace ^3H-progesterone as reference substance from the receptor.
2. Mineralocorticoid Receptor Binding Test:
The test was carried out as in 1, with the following modifications: cytosol from mineralocorticoid receptor-expressing insect cells (Hi5) was used, and the reference substance was ^3H-aldosterone.

progesterone receptor = molecular target: T2, progesterone receptor (Homo sapiens, UniProt P06401); assay: Progesterone receptor binding test; details: for Progesterone receptor (PR) Competition factor: CF 1 = affinity of progesterone, CF >1 lower affinity, <1 higher affinity; for CF PR/CF MR: ratio of competition factors CF(PR) and CF(MR)
T2 construct: made in house; host or cells: Hi5 insect cells (cytosol)
T2 sequence (P06401 1-933): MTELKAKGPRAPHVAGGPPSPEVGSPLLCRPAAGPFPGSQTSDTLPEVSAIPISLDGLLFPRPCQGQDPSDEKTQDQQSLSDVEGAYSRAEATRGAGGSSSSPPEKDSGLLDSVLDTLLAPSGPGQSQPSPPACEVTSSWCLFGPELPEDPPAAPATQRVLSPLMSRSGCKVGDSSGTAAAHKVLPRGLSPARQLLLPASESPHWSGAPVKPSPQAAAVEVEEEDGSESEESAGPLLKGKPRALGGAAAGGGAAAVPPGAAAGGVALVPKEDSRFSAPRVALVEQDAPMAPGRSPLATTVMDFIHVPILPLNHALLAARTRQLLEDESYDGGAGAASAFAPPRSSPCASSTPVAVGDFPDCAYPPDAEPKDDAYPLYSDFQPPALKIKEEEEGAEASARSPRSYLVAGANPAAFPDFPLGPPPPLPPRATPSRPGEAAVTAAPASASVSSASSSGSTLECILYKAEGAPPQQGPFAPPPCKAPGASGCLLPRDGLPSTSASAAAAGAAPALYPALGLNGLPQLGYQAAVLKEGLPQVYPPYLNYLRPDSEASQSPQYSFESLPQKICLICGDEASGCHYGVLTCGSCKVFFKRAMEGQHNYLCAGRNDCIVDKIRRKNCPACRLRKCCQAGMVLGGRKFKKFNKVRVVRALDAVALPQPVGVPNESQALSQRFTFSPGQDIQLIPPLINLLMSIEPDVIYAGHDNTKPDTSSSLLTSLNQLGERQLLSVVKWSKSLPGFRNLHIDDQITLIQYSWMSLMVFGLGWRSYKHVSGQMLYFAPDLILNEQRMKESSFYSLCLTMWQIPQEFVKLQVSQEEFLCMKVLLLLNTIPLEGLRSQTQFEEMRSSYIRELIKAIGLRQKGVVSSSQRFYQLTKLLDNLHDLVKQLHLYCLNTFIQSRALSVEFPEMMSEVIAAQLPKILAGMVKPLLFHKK
Description: 1. Progesterone Receptor Binding Test:
as §1

[2] = displacement of 3H-progesterone, cytosol from PR-expressing insect cells (Hi5), read-out: Progesterone receptor (PR) IC50

| Structure (SMILES) | Mineralocorticoid receptor (MR) Competition factor [1] | Progesterone receptor (PR) Competition factor (progesterone receptor) | IC50 (progesterone receptor; [2]) | CF PR/CF MR (progesterone receptor) | IC50 (progesterone receptor) |
| --- | --- | --- | --- | --- | --- |
| CC[C@]12CC[C@H]3[C@@H]([C@H]4C[C@H]4C4=C(Cl)C(=O)CC[C@@H]43)[C@@H]1[C@@H]1C[C@@H]1[C@@]21C=CC(=O)O1 [Example 8, 6β,7β;15β,16β-Bismethylene-4-chloro-17β-hydroxy-18-methyl-19-nor-17α-pregna-4,20(Z)-dien-3-one-21-carboxylic acid γ-lactone] | 29.0 | 31.12 | 740 nM | 1.07 | – |
| CC[C@]12CC[C@H]3[C@@H](C[C@@H](CO)C4=CC(=O)CC[C@@H]43)[C@@H]1[C@@H]1C[C@@H]1[C@@]21C=CC(=O)O1 [Example 10, 17β-Hydroxy-6β-hydroxymethylene-18-methyl-15β,16β-methylene-19-nor-17α-pregna-4,20(Z)-dien-3-one-21-carboxylic acid γ-lactone] | 2.7 | 4000.00 | – | inactive | – |
| C[C@@H]1CC2=CC(=O)CC[C@@H]2[C@H]2CC[C@@]3(C)[C@@H]([C@H]4C[C@H]4[C@@]34C=CC(=O)O4)[C@@H]21 [Example 14A, 17β-Hydroxy-7α-methyl-15α,16α-methylene-19-nor-17α-pregna-4,20(Z)-dien-3-one-21-carboxylic acid γ-lactone] | 1.3 | 2.04 | – | 1.57 | 49 nM |
| CC[C@]12CC[C@H]3[C@@H](C=CC4=CC(=O)CC[C@@H]43)[C@@H]1[C@@H]1C[C@@H]1[C@@]21C=CC(=O)O1 [Example 3, 17β-Hydroxy-18-methyl-15β,16β-methylene-19-nor-17α-pregna-4,6,20(Z)-trien-3-one-21-carboxylic acid γ-lactone] | 1.5 | 2.72 | – | 1.81 | 72 nM |
| C[C@]12CC[C@H]3[C@@H](C[C@@H](CO)C4=CC(=O)CC[C@@H]43)[C@@H]1[C@@H]1C[C@@H]1[C@@]21C=CC(=O)O1 [Example 21, 17β-Hydroxy-6β-hydroxymethylene-15β,16β-methylene-19-nor-17α-pregna-4,20(Z)-dien-3-one-21-carboxylic acid γ-lactone] | – | 159.27 | 4800 nM | – | – |
| C[C@]12CC[C@H]3[C@@H](CCC4=C(Cl)C(=O)CC[C@@H]43)[C@@H]1[C@H]1C[C@H]1[C@@]21C=CC(=O)O1 [Example 18, 4-Chloro-17β-hydroxy-15α,16α-methylene-19-nor-17α-pregna-4,20(Z)-dien-3-one-21-carboxylic acid γ-lactone] | 35.0 | 17.24 | – | 0.49 | 400 nM |
| C[C@]12CC[C@H]3[C@@H](CCC4=CC(=O)CC[C@@H]43)[C@@H]1[C@@H]1C[C@@H]1[C@@]21C=CC(=O)O1 [Example 19, 17β-Hydroxy-15β,16β-methylene-19-nor-17α-pregna-4,20(Z)-dien-3-one-21-carboxylic acid γ-lactone] | 187.0 | 1.70 | – | 0.01 | 25 nM |
| C[C@]12CC[C@H]3[C@@H](CC4(CC4)C4=CC(=O)CC[C@@H]43)[C@@H]1[C@@H]1C[C@@H]1[C@@]21C=CC(=O)O1 [Example 22, 6,6-(1,2-Ethanediyl)-17β-hydroxy-15β,16β-methylene-19-nor-17α-pregna-4,20(Z)dien-3-one-21-carboxylic acid γ-lactone] | 0.8 | 1.04 | – | 1.30 | 30 nM |
| C[C@]12CC[C@H]3[C@@H](CCC4=C(Cl)C(=O)CC[C@@H]43)[C@@H]1[C@@H]1C[C@@H]1[C@@]21C=CC(=O)O1 [Example 27, 4-Chloro-17β-hydroxy-15β,16β-methylene-19-nor-17α-pregna-4,20(Z)-dien-3-one-21-carboxylic acid γ-lactone] | 47.0 | 101.93 | – | 2.17 | 2900 nM |
| C[C@]12CC[C@H]3[C@@H](C=CC4=CC(=O)CC[C@@H]43)[C@@H]1[C@H]1C[C@H]1[C@@]21C=CC(=O)O1 [Example 13, 17β-Hydroxy-15α,16α-methylene-19-nor-17α-pregna-4,6,20(Z)-trien-3-one-21-carboxylic acid γ-lactone] | 1.6 | 7.89 | 190 nM | 4.93 | – |
| CC[C@]12CC[C@H]3[C@@H]([C@H]4C[C@H]4C4=CC(=O)CC[C@@H]43)[C@@H]1[C@@H]1C[C@@H]1[C@@]21C=CC(=O)O1 [Example 1, 6β,7β;15β,16β-Bismethylene-17β-hydroxy-18-methyl-19-nor-17α-pregna-4,20(Z)-dien-3-one-21-carboxylic acid γ-lactone] | 1.6 | 0.76 | – | 0.48 | 41 nM |
| C=C[C@@H]1CC2=CC(=O)CC[C@@H]2[C@H]2CC[C@@]3(CC)[C@@H]([C@@H]4C[C@@H]4[C@@]34C=CC(=O)O4)[C@@H]21 [Example 6A, 17β-Hydroxy-7α-vinyl-18-methyl-15β,16β-methylene-19-nor-17α-pregna-4,20(Z)-dien-3-one-21-carboxylic acid γ-lactone] | 1.5 | 4.85 | – | 3.23 | 120 nM |
| C=C[C@@H]1CC2=CC(=O)CC[C@@H]2[C@H]2CC[C@@]3(C)[C@@H]([C@@H]4C[C@@H]4[C@@]34C=CC(=O)O4)[C@@H]21 [Example 25A, 17β-Hydroxy-15β,16β-methylene-7α-vinyl-19-nor-17α-pregna-4,20(Z)-dien-3-one-21-carboxylic acid γ-lactone] | 9.4 | 6.14 | – | 0.65 | 150 nM |
